The text below walks through data of ChEMBL document CHEMBL5465560, “Selectivity Literature for EUbOPEN Chemogenomic Library” (2024).

Assay [1] addresses Protein arginine N-methyltransferase 3 (Homo sapiens, UniProt O60678). The assay can be described thus: Selectivity interaction (Scintillation proximity assays) EUB0000255b PRMT3. (In general: In a scintillation proximity assay essentially only radioactivity close to the scintillant gives light.)
The target in assay [2] is Cyclin-dependent kinase 16 (Homo sapiens) (UniProt Q00536). The note with it: at 10 µM.
The target in assay [3] is Calcium/calmodulin-dependent protein kinase type II subunit delta (Homo sapiens) (UniProt Q13557). The assay can be described thus: Selectivity interaction (ActivX KiNativ screen (ex vivo kinase selectivity in human PBMCs)) EUB0001619a CAMK2D. The assay is classed as cell-based. The note with it: PBMC, at 1 µM.
Assay [4] has as its target Insulin receptor-related protein (Homo sapiens) (UniProt P14616). In words: Selectivity interaction (KinomeScan (DiscoverX)) EUB0000666a INSRR. Conditions: at 10 µM.
Assay [5] deals with Phosphatidylinositol 4,5-bisphosphate 3-kinase catalytic subunit alpha isoform (Homo sapiens), P42336 [E542K]. Conditions: at 10 µM.
The target of assay [6] is Homeodomain-interacting protein kinase 1 (Homo sapiens, UniProt Q86Z02). In words: Selectivity interaction (KinomeScan (DiscoverX)) EUB0000607a HIPK1. Conditions: at 10 µM.
For assay [7], the target named is Tyrosine-protein kinase Blk (Homo sapiens) (UniProt P51451). Conditions: at 10 µM.
Assay [8] concerns the target Casein kinase I isoform epsilon (Homo sapiens, UniProt P49674). The assay can be described thus: Selectivity interaction (Kinase panel (Invitrogen)) EUB0000639a CSNK1E. Conditions: at 200 nM.
The target of assay [9] is T1, Ephrin type-B receptor 3 (Homo sapiens) (UniProt P54753).
T1 sequence (whole entry): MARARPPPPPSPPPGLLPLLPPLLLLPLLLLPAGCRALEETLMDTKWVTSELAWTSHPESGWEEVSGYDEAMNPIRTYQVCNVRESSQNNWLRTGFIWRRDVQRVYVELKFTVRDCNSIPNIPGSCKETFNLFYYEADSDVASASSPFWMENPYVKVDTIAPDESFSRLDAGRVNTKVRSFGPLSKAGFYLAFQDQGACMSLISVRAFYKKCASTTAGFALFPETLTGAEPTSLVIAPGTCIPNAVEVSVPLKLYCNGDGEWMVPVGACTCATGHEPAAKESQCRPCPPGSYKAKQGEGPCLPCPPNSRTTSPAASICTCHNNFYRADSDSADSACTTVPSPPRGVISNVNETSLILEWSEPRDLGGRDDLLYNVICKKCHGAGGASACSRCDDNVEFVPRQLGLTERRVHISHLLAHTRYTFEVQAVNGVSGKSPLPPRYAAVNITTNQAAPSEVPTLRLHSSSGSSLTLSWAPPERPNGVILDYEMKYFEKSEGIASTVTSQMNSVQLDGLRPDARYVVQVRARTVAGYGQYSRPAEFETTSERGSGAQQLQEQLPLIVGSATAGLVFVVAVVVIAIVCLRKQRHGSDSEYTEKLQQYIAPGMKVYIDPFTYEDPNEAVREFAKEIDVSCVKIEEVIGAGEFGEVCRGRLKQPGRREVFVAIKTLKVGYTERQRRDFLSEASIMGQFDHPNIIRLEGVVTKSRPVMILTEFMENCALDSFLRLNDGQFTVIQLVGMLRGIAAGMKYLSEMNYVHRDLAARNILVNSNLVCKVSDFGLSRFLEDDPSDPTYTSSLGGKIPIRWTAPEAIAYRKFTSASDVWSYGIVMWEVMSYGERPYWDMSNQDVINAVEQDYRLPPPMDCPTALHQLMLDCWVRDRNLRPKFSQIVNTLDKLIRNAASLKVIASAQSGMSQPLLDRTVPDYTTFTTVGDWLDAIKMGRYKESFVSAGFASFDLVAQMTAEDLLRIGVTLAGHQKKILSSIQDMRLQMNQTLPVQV
The assay can be described thus: Selectivity interaction (ProQinase) EUB0000171b EPHB3.

The target in assay [10] is T2, Discoidin domain-containing receptor 2 (Homo sapiens) (UniProt Q16832).
T2 sequence (whole entry): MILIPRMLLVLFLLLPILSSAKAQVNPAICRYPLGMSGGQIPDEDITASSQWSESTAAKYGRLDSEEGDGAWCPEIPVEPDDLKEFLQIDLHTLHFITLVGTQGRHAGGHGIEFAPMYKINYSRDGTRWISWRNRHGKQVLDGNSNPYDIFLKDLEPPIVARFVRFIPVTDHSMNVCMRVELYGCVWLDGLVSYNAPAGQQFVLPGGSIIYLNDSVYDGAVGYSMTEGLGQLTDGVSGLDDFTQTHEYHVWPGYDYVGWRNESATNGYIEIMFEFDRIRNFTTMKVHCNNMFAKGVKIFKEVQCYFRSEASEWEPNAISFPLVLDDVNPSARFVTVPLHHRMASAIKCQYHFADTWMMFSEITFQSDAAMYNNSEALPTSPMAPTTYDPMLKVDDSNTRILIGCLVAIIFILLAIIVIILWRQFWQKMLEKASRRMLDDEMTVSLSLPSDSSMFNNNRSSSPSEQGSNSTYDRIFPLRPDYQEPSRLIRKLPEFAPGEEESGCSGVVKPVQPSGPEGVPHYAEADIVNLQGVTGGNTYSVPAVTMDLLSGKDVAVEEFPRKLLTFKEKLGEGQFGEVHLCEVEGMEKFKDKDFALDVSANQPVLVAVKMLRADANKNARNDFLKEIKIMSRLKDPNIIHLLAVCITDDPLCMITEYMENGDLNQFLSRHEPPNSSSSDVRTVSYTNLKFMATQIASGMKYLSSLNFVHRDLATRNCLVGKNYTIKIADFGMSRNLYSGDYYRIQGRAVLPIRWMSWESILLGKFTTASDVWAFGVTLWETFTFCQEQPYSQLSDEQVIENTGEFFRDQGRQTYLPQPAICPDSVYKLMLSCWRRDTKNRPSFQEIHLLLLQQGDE
The assay can be described thus: Selectivity interaction (KinomeScan (DiscoverX)) EUB0001049a DDR2. The note with it: at 1 µM.

Assay [11] deals with Serine/threonine-protein kinase 32A (Homo sapiens) (UniProt Q8WU08). In words: Selectivity interaction (KinomeScan (DiscoverX)) EUB0000229b STK32A. Conditions: at 10 µM.
Assay [12] deals with Cyclin-dependent kinase 3 (Homo sapiens) (UniProt Q00526). The assay can be described thus: Selectivity interaction (KinomeScan (DiscoverX)) EUB0000229b CDK3. Conditions: at 10 µM.
Cyclin-dependent kinase 3 (Homo sapiens), sequence (Q00526 whole entry, looked up): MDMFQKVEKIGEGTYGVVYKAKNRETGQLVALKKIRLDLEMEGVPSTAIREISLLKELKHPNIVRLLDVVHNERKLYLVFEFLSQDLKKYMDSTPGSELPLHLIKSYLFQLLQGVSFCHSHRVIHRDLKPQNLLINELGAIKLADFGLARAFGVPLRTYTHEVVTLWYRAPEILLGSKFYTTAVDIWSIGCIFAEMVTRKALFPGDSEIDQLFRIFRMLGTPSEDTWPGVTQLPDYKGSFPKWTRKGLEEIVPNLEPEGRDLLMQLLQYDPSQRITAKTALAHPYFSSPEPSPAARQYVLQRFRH

Calcium/calmodulin-dependent protein kinase type II subunit delta (Homo sapiens), sequence (Q13557 whole entry): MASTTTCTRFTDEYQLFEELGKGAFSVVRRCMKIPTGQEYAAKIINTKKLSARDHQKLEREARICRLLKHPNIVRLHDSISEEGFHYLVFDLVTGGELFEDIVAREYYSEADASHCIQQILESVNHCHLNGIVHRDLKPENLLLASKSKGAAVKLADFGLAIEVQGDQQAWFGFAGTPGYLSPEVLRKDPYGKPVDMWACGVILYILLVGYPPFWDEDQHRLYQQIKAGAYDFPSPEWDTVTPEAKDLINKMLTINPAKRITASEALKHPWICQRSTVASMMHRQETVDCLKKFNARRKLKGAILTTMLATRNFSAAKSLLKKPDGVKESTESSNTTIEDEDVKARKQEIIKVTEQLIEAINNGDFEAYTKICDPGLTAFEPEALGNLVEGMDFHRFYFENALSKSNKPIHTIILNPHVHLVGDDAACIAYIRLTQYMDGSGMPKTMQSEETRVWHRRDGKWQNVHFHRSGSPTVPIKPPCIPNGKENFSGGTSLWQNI
Insulin receptor-related protein (Homo sapiens), sequence (P14616 27-742 limits assumed): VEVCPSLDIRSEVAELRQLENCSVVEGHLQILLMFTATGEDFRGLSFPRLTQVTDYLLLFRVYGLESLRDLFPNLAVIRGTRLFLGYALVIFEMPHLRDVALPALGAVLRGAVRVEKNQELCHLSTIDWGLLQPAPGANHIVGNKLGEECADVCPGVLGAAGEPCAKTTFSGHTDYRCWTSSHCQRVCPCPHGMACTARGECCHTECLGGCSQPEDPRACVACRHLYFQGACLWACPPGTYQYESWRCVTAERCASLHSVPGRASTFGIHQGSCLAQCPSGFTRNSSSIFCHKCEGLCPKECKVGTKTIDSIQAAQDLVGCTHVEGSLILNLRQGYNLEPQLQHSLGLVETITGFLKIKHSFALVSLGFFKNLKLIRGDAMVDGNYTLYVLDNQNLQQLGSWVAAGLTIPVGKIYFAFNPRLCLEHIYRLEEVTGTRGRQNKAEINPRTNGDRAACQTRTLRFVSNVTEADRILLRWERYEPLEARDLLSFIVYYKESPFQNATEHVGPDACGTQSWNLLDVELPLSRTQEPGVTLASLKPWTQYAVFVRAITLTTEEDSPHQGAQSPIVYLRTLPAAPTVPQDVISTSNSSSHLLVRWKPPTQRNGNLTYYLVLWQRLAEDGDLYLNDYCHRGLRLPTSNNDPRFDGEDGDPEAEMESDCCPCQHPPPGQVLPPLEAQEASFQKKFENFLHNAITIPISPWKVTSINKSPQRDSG
Insulin receptor-related protein (Homo sapiens), sequence (P14616 747-1297 limits assumed): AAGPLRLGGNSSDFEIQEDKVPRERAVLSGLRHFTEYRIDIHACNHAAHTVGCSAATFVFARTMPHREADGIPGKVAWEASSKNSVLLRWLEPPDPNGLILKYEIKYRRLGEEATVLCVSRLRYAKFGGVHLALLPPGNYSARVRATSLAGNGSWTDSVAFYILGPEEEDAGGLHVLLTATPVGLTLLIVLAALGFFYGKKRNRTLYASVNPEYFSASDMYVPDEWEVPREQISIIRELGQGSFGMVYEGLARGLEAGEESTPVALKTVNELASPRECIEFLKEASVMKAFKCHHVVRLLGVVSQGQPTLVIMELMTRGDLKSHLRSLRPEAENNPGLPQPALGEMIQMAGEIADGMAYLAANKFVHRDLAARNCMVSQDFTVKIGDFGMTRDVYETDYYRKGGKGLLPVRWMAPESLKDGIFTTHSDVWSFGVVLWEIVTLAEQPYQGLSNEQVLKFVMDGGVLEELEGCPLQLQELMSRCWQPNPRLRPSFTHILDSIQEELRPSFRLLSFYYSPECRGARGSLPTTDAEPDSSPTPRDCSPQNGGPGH
Tyrosine-protein kinase Blk (Homo sapiens), sequence (P51451 2-505 limits assumed): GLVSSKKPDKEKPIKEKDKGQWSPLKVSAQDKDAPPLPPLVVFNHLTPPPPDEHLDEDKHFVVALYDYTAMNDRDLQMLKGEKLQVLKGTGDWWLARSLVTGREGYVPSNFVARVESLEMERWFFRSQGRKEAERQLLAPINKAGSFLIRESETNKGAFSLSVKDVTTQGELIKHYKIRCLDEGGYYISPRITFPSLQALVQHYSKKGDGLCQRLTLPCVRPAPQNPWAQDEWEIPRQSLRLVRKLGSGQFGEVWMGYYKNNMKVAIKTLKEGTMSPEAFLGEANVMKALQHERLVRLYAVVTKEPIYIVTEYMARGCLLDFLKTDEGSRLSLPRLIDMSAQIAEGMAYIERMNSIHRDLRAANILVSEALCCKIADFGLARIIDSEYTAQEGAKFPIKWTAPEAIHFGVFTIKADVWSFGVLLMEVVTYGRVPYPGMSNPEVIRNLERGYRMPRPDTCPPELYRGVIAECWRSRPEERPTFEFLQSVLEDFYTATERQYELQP
Protein arginine N-methyltransferase 3, sequence (O60678 whole entry): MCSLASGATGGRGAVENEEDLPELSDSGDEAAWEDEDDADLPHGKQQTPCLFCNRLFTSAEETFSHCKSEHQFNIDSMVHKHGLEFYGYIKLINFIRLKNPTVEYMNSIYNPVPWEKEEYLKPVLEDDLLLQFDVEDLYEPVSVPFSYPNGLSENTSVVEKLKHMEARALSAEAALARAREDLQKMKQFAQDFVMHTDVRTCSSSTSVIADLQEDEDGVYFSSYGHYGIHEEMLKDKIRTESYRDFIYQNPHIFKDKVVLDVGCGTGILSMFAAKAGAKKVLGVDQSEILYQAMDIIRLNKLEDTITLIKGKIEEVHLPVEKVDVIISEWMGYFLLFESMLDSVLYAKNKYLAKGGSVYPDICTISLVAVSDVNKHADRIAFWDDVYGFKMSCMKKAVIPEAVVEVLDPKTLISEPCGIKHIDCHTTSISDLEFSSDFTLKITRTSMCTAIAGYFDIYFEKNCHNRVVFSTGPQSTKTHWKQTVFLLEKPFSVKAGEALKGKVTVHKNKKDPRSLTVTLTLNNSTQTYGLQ
Cyclin-dependent kinase 16 (Homo sapiens), sequence (Q00536 whole entry): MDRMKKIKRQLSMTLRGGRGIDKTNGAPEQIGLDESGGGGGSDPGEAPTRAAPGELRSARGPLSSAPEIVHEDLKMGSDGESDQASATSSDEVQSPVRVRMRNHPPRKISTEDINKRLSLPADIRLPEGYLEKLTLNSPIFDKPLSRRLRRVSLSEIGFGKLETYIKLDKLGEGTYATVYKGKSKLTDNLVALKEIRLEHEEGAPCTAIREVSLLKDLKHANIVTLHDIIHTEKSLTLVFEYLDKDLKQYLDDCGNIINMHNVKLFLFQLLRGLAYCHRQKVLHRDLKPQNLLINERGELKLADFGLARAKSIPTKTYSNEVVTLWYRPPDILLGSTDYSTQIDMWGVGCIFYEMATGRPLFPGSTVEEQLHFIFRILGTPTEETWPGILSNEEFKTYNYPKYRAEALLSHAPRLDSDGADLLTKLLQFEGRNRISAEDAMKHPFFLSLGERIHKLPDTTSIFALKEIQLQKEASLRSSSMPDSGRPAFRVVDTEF
Homeodomain-interacting protein kinase 1, sequence (Q86Z02 whole entry, looked up): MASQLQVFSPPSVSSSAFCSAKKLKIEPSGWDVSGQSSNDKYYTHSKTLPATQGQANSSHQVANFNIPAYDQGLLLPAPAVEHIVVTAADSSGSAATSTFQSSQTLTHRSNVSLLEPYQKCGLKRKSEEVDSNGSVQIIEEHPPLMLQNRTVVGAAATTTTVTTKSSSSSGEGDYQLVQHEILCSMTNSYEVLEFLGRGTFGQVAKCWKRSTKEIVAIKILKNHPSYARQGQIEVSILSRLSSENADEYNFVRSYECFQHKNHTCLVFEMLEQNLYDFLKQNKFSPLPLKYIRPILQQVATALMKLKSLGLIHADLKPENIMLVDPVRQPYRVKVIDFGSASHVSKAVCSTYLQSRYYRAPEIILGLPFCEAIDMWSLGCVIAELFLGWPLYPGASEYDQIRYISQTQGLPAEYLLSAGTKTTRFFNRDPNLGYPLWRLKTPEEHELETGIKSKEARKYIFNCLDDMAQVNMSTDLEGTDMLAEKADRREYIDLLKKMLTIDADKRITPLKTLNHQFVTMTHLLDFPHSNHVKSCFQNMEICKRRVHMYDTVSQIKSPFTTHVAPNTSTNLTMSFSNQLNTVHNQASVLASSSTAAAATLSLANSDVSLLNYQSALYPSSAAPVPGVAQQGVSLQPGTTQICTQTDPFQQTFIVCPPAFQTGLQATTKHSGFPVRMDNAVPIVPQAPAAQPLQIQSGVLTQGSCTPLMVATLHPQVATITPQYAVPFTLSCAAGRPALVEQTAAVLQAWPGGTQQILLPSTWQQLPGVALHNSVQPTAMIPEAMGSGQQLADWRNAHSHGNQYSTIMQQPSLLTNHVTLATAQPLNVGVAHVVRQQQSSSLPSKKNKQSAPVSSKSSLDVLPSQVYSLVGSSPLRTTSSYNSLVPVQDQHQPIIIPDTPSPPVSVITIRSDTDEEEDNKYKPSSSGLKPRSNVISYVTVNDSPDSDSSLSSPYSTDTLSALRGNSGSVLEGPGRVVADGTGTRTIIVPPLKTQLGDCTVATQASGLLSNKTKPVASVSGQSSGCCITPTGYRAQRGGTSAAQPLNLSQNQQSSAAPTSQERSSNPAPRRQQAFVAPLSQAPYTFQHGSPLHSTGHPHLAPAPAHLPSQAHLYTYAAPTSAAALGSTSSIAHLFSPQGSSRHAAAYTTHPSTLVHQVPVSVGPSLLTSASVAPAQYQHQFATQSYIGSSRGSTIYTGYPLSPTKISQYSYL

The term IC50 denotes the point on the concentration scale where inhibition reaches its midpoint. Read a high IC50 as weaker potency. In the case of `COCCN1CCC(c2cc(CN(C)C(=O)c3cccc(Oc4ccccc4)c3)ccn2)CC1`, in [1], the IC50 was > 10 µM.

As to `COCC(=O)NC/C=C/c1ccc2ncnc(Nc3ccc(Oc4ccc(C)nc4)c(C)c3)c2c1` [CP-724714], in assay [2], the % of control came out at 74%.

`N#Cc1cccc(-c2c[nH]c3ncnc(N4CCOCC4)c23)c1`: the % of inhibition in assay [3] is 4%.

Take `O=C(NOC[C@H](O)CO)c1ccc(F)c(F)c1Nc1ccc(I)cc1F`: in [4], the % of control turned out to be 81%.

With `CNC(=O)Nc1ccc(-c2nc(N3CC4CCC(C3)O4)c3cnn(C4CCC5(CC4)OCCO5)c3n2)cc1`, the % of control came out at 14% in assay [5] and 100% in [6].

Take `Cc1cc([C@@H](C)Nc2ccccc2C(=O)O)c2nc(N3CCOCC3)cc(=O)n2c1` [AZD-6482]: in assay [7], the % of control turned out to be 99%.

The molecule `CC[C@@H]1[C@H](F)C(=O)N[C@@H]1COc1nccc2cc(C(N)=O)c(OC)cc12` [ZIMLOVISERTIB] came in with a % of inhibition in assay [8] of 42.3%.

As for `C=CC(=O)Nc1cccc(C(=O)Nc2ccc(Nc3cc(-c4[nH]c(SC)nc4C)ccn3)cc2)c1`, the % of control in [9] (at 1 µM) is 106%; in [9] (at 5 µM) it was 108%.

`COc1cc(Nc2nc(C)cc(-c3cnn4nc(OC)ccc34)n2)cc(C(F)(F)F)c1` showed a % of control in assay [10] of 65%.

Turning to `COc1cc(N(C)c2ccnc3ccc(C(F)(F)F)cc23)cc(OC)c1OC`, the results for the % binding in assay [11] and in assay [12] were 82% and 100%, respectively.
